Experiments:
[1] = molecular target: GSK3β(h) (Homo sapiens, UniProt P49841); experiment: GSK3β radiometric kinase assay (33P-ATP, phospho GS2 peptide); assay type: biochemical; details: read-out: IC50 GSK3β (enzyme assay)
Method: GSK3β(h) is incubated with 8 mM MOPS pH 7,0, 0,2 mM EDTA, 20 μM
[…](p)EDEEE (phosphor GS2 peptide), 10 mM Mg-acetate and [gamma-33P-ATP](specific activity approx. 500 cpm/Pmol, concentration as required). The reaction is initiated by the addition of the MgATP. After incubation for 40 minutes at the room temperature, the Reaction is stopped by the addition of 3% phosphoric acid solution. 10 μL of reaction is then spotted onto a P30 filtermat and washed three times for 5 minutes in 50 mM phosphoric acid and once in methanol prior to drying and scintillation counting.

[2] = molecular target: T1, GCN2 (Homo sapiens, UniProt Q9P2K8); experiment: GCN2 enzyme assay (TR-FRET Lanthascreen, GFP-eIF2alpha phosphorylation); assay type: biochemical; details: 10 μM ATP, 80 nM GFP-eIF2a, 30 nM GCN2
Method in brief: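 Phosphorylation of GFP-eIF2alpha (80 nM) by GCN2 run at room temperature with 10 μM ATP. After EDTA quench, product quantified by Lanthascreen TR-FRET (antibody–GFP complex, 340 nm excitation).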
Target sequence in this assay (Q9P2K8 whole entry, species assumed): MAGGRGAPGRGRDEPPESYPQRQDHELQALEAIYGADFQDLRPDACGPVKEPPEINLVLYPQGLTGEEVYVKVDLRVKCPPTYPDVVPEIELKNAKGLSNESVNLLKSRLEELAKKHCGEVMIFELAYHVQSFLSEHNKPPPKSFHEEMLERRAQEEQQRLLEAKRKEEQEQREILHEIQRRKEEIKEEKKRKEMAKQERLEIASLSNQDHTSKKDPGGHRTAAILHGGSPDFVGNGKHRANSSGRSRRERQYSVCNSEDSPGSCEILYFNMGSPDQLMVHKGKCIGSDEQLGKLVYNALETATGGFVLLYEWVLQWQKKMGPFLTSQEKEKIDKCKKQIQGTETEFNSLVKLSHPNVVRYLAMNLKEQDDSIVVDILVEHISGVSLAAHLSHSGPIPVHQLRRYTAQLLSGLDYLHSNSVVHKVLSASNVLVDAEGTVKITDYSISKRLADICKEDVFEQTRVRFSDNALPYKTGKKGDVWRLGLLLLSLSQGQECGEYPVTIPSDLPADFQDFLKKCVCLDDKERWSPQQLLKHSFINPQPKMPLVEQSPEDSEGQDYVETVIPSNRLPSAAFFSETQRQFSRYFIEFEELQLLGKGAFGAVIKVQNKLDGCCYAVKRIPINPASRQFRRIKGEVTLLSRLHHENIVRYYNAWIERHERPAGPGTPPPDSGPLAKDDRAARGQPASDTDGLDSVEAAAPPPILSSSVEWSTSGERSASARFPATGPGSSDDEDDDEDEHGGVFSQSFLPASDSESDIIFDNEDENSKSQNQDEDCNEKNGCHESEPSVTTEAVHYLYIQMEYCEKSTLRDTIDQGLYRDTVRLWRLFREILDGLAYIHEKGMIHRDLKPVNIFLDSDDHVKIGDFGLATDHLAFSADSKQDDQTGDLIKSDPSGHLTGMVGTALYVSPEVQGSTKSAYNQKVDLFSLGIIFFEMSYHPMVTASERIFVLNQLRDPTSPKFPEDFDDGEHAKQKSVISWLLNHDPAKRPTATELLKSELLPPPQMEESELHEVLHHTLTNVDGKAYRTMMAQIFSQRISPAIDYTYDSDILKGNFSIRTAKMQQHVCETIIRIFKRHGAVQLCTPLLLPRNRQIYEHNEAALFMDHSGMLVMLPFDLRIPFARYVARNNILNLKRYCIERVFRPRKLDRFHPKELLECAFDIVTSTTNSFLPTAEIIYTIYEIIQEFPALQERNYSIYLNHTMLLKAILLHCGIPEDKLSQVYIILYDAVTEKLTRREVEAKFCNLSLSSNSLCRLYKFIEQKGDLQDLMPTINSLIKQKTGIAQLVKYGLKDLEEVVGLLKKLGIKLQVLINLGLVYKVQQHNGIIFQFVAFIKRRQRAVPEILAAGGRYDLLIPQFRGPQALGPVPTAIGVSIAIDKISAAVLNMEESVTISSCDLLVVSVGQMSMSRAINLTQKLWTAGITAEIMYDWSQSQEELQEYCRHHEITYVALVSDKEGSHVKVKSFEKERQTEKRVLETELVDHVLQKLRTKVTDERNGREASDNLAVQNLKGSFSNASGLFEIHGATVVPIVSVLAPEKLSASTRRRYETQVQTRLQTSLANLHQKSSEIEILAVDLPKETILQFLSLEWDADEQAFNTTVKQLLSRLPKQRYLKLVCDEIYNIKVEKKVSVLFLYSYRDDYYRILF

[3] = molecular target: GSK3α(h) (Homo sapiens, UniProt P49840); experiment: GSK3α radiometric kinase assay (33P-ATP, phospho GS2 peptide); assay type: biochemical; details: read-out: IC50 GSK3α (enzyme assay)
Method in brief: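 Human GSK3α incubated with 20 μM phospho-GS2 peptide in 8 mM MOPS pH 7,0, 10 mM Mg-acetate and [γ-33P]ATP (concentration as required), started with MgATP. After 40 minutes at room temperature, stopped with phosphoric acid; 33P incorporation measured by filtermat spotting and scintillation counting.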

[4] = molecular target: T1, GCN2; experiment: Cellular assay of GCN2 activity (phospho-eIF2alpha immunocytochemistry after tryptophanol); assay type: cell-based; set-up: endogenous in cells; host or cells: U2OS; details: Human U2OS cells, 2 h compound, 600 μM tryptophanol 30 min
Method: Cellular Assay for the Determination of Compound Activities
Human U2OS cells (2000 cells/well) are seeded into 384-well plates and incubated for 20 hours.
The next day, the cells are treated with the test compounds and incubated for 2 hours. Then, tryptophanol, at a final concentration of 600 μM, is added to the cells and those are incubated for 30 minutes.
The analysis of cellular GCN2 activities is done by immunocytochemistry.
Briefly, cells are fixated on the well surfaces by formaldehyde and permeabilised with Triton X-100.
The analysis and quantification of phosphorylated GCN2 is done by scanning the plates in the Acumen Explorer system (TTPLabtech). The obtained data are normalised against the untreated control wells (DMSO only) and expressed as % effect values. The determination of IC50 values is done by using the Graph Pad Prism software.
Target sequence in this assay (Q9P2K8 whole entry): as the sequence (Q9P2K8 whole entry, species assumed) above

Sequence of GSK3β(h) (P49841 whole entry): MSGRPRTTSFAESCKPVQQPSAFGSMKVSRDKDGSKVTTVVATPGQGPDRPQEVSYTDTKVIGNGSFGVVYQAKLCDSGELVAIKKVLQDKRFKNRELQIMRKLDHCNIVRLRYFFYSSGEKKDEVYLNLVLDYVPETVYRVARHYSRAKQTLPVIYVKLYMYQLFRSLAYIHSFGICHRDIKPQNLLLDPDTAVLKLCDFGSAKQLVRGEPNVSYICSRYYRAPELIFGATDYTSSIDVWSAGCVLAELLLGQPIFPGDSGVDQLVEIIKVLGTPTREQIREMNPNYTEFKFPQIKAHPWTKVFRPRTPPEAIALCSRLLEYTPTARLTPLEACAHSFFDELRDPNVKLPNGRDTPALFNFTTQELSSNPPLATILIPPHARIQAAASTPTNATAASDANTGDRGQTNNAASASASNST
Sequence of GSK3α(h) (P49840 whole entry): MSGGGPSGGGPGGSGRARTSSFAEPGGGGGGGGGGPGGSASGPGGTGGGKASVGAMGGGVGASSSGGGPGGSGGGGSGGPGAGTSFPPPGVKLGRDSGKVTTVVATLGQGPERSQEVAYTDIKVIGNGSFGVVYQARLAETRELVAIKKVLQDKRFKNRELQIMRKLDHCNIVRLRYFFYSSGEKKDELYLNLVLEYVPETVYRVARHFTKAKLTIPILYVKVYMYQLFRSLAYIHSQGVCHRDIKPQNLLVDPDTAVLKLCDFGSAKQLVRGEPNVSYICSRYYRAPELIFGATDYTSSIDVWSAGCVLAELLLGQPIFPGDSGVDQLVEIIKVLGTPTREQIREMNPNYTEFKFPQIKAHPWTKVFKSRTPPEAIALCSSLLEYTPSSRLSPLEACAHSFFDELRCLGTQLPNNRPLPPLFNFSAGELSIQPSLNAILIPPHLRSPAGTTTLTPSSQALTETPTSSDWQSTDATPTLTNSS

COCCn1cc(-c2ccc(-n3nnc4cnc(N[C@@H]5CC[C@@H](C(N)=O)C5)nc43)nc2)cn1 [A219, (1R,3R)-3-(3-{5-[1-(2-methoxy-ethyl)-1H-pyrazol-4-yl]-pyridin-2-yl}-3H-[1,2,3]triazolo[4,5-d]pyrimidin-5-ylamino)-cyclopentanecarboxylic acid amide] was tested, and the IC50 [1] was under 1000 nM, the IC50 [2] was 1000 to 5000 nM and the IC50 [3] was under 1000 nM.
With COc1ccc(-n2nnc3cnc(N[C@@H]4CCN(C(N)=O)C4)nc32)cc1 [A285, (R)-3-[3-(4-Methoxy-phenyl)-3H-[1,2,3]triazolo[4,5-d]pyrimidin-5-ylamino]-pyrrolidine-1-carboxylic acid amide] the IC50 [1] was 1000 to 5000 nM, the IC50 [2] was under 1000 nM and the IC50 [3] was under 1000 nM.
NC(=O)[C@@H]1CC[C@@H](Nc2ncc3nnn(-c4ccc5ncccc5n4)c3n2)C1 [A194, (1R,3R)-3-(3-[1,5]naphthyridin-2-yl-3H-[1,2,3]triazolo[4,5-d]pyrimidin-5-ylamino)-cyclopentanecarboxylic acid amide] showed an IC50 [1] of under 1000 nM, an IC50 [2] of under 1000 nM and an IC50 [3] of under 1000 nM.
Work on N[C@H]1CC[C@@H](Nc2ncc3nnn(-c4ccc5ncccc5c4)c3n2)C1 [A119, (1S,3R)-N3-(3-quinolin-6-yl-3H-[1,2,3]triazolo[4,5-d]pyrimidin-5-yl)-cyclopentane-1,3-diamine] yielded an IC50 [1] of 1000 to 5000 nM, an IC50 [2] of under 1000 nM and an IC50 [3] of under 1000 nM.
COc1ccc(-n2nnc3cnc(N[C@H]4CC[C@H](C(N)=O)C4)nc32)cc1 [A137, (1S,3S)-3-[3-(4-methoxy-phenyl)-3H-[1,2,3]triazolo[4,5-d]pyrimidin-5-ylamino]-cyclopentanecarboxylic acid amide] gave an IC50 [1] of under 1000 nM, an IC50 [2] of under 1000 nM and an IC50 [3] of under 1000 nM.
Molecule NC(=O)[C@@H]1CC[C@@H](Nc2ncc3nnn(-c4ccc(OCCn5cccn5)cc4)c3n2)C1 [A160, (1R,3R)-3-{3-[4-(2-pyrazol-1-yl-ethoxy)-phenyl]-3H-[1,2,3]triazolo[4,5-d]-pyrimidin-5-ylamino}-cyclopentanecarboxylic acid amide] has an IC50 [1] of under 1000 nM, an IC50 [2] of under 1000 nM and an IC50 [3] of under 1000 nM.
Work on CS(=O)(=O)N1CC[C@@H](Nc2ncc3nnn(-c4ccc5ncccc5c4)c3n2)C1 [A269, ((R)-1-methanesulfonyl-pyrrolidin-3-yl)-(3-quinolin-6-yl-3H-[1,2,3]triazolo[4,5-d]pyrimidin-5-yl)-amine] yielded an IC50 [1] of under 1000 nM, an IC50 [2] of under 1000 nM and an IC50 [3] of under 1000 nM.
Work on NC(=O)[C@@H]1CC[C@@H](Nc2ncc3nnn(-c4ccc(N5CCCC5)cc4)c3n2)C1 [A146, (1R,3R)-3-[3-(4-pyrrolidin-1-yl-phenyl)-3H-[1,2,3]triazolo[4,5-d]pyrimidin-5-ylamino]-cyclopentanecarboxylic acid amide] yielded an IC50 [1] of under 1000 nM, an IC50 [2] of under 1000 nM and an IC50 [3] of under 1000 nM.
In the case of CCOc1ccc(-n2nnc3cnc(N[C@@H]4CC[C@@H](C(N)=O)C4)nc32)nc1 [A178, (1R,3R)-3-[3-(5-ethoxy-pyridin-2-yl)-3H-[1,2,3]triazolo[4,5-d]pyrimidin-5-ylamino]-cyclopentanecarboxylic acid amide], the IC50 [1] is reported as under 1000 nM, the IC50 [2] is reported as under 1000 nM and the IC50 [3] is reported as under 1000 nM.
Cc1ccc2cc(-n3nnc4cnc(N[C@@H]5CCN(C(=O)CCN6CCN(C)CC6)C5)nc43)ccc2n1 [A134, 3-(4-methyl-piperazin-1-yl)-1-{(R)-3-[3-(2-methyl-quinolin-6-yl)-3H-[1,2,3]triazolo[4,5-d]pyrimidin-5-ylamino]-pyrrolidin-1-yl}-propan-1-one] gave an IC50 [1] of 1000 to 5000 nM, an IC50 [2] of under 1000 nM and an IC50 [3] of under 1000 nM.
Molecule CN1CCN(CCC(=O)N2CC[C@@H](Nc3ncc4nnn(-c5ccc6ncccc6c5)c4n3)C2)CC1 [A133, 3-(4-methyl-piperazin-1-yl)-1-[(R)-3-(3-quinolin-6-yl-3H-[1,2,3]triazolo[4,5-d]pyrimidin-5-ylamino)-pyrrolidin-1-yl]-propan-1-one] has an IC50 [1] of 1000 to 5000 nM, an IC50 [2] of under 1000 nM and an IC50 [3] of under 1000 nM.
For NC(=O)[C@@H]1CC[C@@H](Nc2ncc3nnn(-c4ccc5c(c4)OCCO5)c3n2)C1 [A156, (1R,3R)-3-[3-(2,3-dihydro-benzo[1,4]dioxin-6-yl)-3H-[1,2,3]triazolo[4,5-d]pyrimidin-5-ylamino]-cyclopentanecarboxylic acid amide], the IC50 [1] was under 1000 nM, the IC50 [2] was under 1000 nM and the IC50 [3] was under 1000 nM.
Cc1nc2cc(-n3nnc4cnc(N[C@@H]5CC[C@@H](C(N)=O)C5)nc43)ccc2n1C [A183, (1R,3R)-3-[3-(1,2-dimethyl-1H-benzimidazol-5-yl)-3H-[1,2,3]triazolo[4,5-d]-pyrimidin-5-ylamino]-cyclopentanecarboxylic acid amide] was tested, and the IC50 [1] was under 1000 nM, the IC50 [2] was under 1000 nM and the IC50 [3] was under 1000 nM.
CCOc1ccc(-n2nnc3cnc(N[C@@H]4CC[C@@H](c5nnc(C)o5)C4)nc32)cc1 [A281, [3-(4-ethoxy-phenyl)-3H-[1,2,3]triazolo[4,5-d]pyrimidin-5-yl]-[(1R,3R)-3-(5-methyl-[1,3,4]oxadiazol-2-yl)-cyclopentyl]-amine] was tested, and the IC50 [1] was under 1000 nM, the IC50 [2] was under 1000 nM and the IC50 [3] was under 1000 nM.
COc1ccc(-n2nnc3cnc(N[C@H]4CC[C@H](S(N)(=O)=O)C4)nc32)cc1 (relative stereo) [A288, (trans)-3-[3-(4-methoxy-phenyl)-3H-[1,2,3]triazolo[4,5-d]pyrimidin-5-ylamino]-cyclopentanesulfonic acid amide] showed an IC50 [1] of under 1000 nM, an IC50 [2] of under 1000 nM and an IC50 [3] of under 1000 nM.
Molecule COc1ccc(-n2nnc3cnc(N[C@@H]4CCN(c5cnn(C)c5)C4)nc32)cc1 [A115, [3-(4-methoxy-phenyl)-3H-[1,2,3]triazolo[4,5-d]pyrimidin-5-yl]-[(R)-1-(1-methyl-1H-pyrazol-4-yl)-pyrrolidin-3-yl]-amine] has an IC50 [1] of under 1000 nM, an IC50 [2] of under 1000 nM and an IC50 [3] of under 1000 nM.
Work on COc1ccc(-n2nnc3cnc(N[C@@H]4CCC[C@@H](C(N)=O)C4)nc32)cc1 (relative stereo) [A148, (trans)-3-[3-(4-methoxy-phenyl)-3H-[1,2,3]triazolo[4,5-d]pyrimidin-5-ylamino]-cyclohexanecarboxylic acid amide] yielded an IC50 [1] of 1000 to 5000 nM, an IC50 [2] of under 1000 nM and an IC50 [3] of under 1000 nM.
Molecule COc1ccc(-n2nnc3cnc(N[C@@H]4CC[C@H](C(N)=O)C4)nc32)cc1 [A136, (1S,3R)-3-[3-(4-methoxy-phenyl)-3H-[1,2,3]triazolo[4,5-d]pyrimidin-5-ylamino]-cyclopentanecarboxylic acid amide] has an IC50 [1] of under 1000 nM, an IC50 [2] of under 1000 nM and an IC50 [3] of under 1000 nM.
For Cc1ncc2cc(-n3nnc4cnc(N[C@@H]5CC[C@@H](O)C5)nc43)ccc2n1 (relative stereo) [A209, (trans)-3-[3-(2-methyl-quinazolin-6-yl)-3H-[1,2,3]triazolo[4,5-d]pyrimidin-5-ylamino]-cyclopentanol], the IC50 [1] was under 1000 nM, the IC50 [2] was under 1000 nM and the IC50 [3] was under 1000 nM.
For CCOc1ccc(-n2nnc3cnc(N[C@@H]4CC[C@@H](C(=O)NS(C)(=O)=O)C4)nc32)cc1 [A286, N-{(1R,3R)-3-[3-(4-ethoxy-phenyl)-3H-[1,2,3]triazolo[4,5-d]-pyrimidin-5-ylamino]-cyclopentanecarbonyl}-methanesulfonamide], the IC50 [1] was under 1000 nM, the IC50 [2] was under 1000 nM and the IC50 [3] was under 1000 nM.
NC(=O)[C@@H]1CC[C@@H](Nc2ncc3nnn(-c4ccc(I)cn4)c3n2)C1 [A177, (1R,3R)-3-[3-(5-iodo-pyridin-2-yl)-3H-[1,2,3]triazolo[4,5-d]pyrimidin-5-ylamino]-cyclopentanecarboxylic acid amide] showed an IC50 [1] of under 1000 nM, an IC50 [2] of under 1000 nM and an IC50 [3] of under 1000 nM.
Molecule CCOc1ccc(-n2nnc3cnc(N[C@@H]4CC[C@@H](C(N)=O)C4)nc32)cn1 [A179, (1R,3R)-3-[3-(6-ethoxy-pyridin-3-yl)-3H-[1,2,3]triazolo[4,5-d]pyrimidin-5-ylamino]-cyclopentanecarboxylic acid amide] has an IC50 [1] of under 1000 nM, an IC50 [2] of under 1000 nM and an IC50 [3] of under 1000 nM.
Work on N[C@H]1CC[C@H](Nc2ncc3nnn(-c4ccc(OC5CCOCC5)cc4)c3n2)CC1 [A127, N-{3-[4-(tetrahydro-pyran-4-yloxy)-phenyl]-3H-[1,2,3]triazolo[4,5-d]pyrimidin-5-yl}-trans-cyclohexane-1,4-diamine] yielded an IC50 [2] of under 1000 nM, an IC50 [3] of under 1000 nM and an IC50 [4] of 1000 to 5000 nM.
NC1CC[C@@H](Nc2ncc3nnn(-c4ccc(-c5cnn(CCO)c5)cc4)c3n2)C1 (stereo in doubt) [A257, 2-(4-{4-[5-((1R,3S)-3-amino-cyclopentylamino)-[1,2,3]triazolo[4,5-d]pyrimidin-3-yl]-phenyl}-pyrazol-1-yl)-ethanol] gave an IC50 [2] of under 1000 nM, an IC50 [3] of under 1000 nM and an IC50 [4] of 5000 to 10000 nM.

Source: US9855268B2, “Triazolo[4,5-d]pyrimidine derivatives” (Merck Patent GmbH, priority 2013, dated 2018)
